From USRE48059E1, “Piperazine-substituted benzothiophenes for treatment of mental disorders” (Otsuka Pharmaceutical Co., Ltd., priority 2005, dated 2020)

Assays:
[1] = test system: Serotonin (5-HT) uptake by rat brain synaptosome; assay: Serotonin (5-HT) uptake inhibitory activity by rat brain synaptosome; format: biochemical; settings: test compound 300 nM; rat frontal cortex crude synaptosome; tritium labeled 5-HT 8 nM
Description: Measurement of Serotonin (5-HT) Uptake Inhibitory Activity of a Test Compound by Rat Brain Synaptosome
Wistar male rats were decapitated, the brain was retrieved and frontal cortex was dissected out, and it was homogenized in 0.32 M sucrose solution of a weight 20 times of the weight of the tissue using a Potter type homogenizer.
5-HT uptake reaction was performed in a volume of 200 μl using a 96-well round bottom plate and pargyline (final concentration 10 μM) and sodium ascorbate (final concentration 0.2 mg/ml) were contained in the incubation buffer upon reaction and used.
Incubation buffer (total counting), non-labeled 5-HT (final concentration 10 μM, non-specific counting) and the diluted test compound (final concentration 300 nM) were added to each well. One-tenth quantity of the final volume of the synaptosome fraction was added and after preincubated at 37° C. for 10 minutes, tritium labeled 5-HT solution (final concentration 8 nM) was added and uptake reaction was started at 37° C. The uptake time was 10 minutes and the reaction was terminated by vacuum filtration through a 96-well fiber glass filter paper plate, and after the filter paper was washed with cold normal saline, it was dried enough and Microscint0 (Perkin-Elmer) was added to the filter and remaining radioactivity on the filter was measured.

[2] = target: Human recombinant dopamine D2 receptor (Homo sapiens (Human), UniProt P14416); settings: forskolin stimulation; well without test compound = 100%; CHO/DHFR(-) cells
Description: Partial agonistic activity on dopamine D2 receptor using D2 receptor expression cells
Partial agonistic activity on dopamine D2 receptor was evaluated by quantitatively determining cyclic AMP production inhibitory effect of a test compound in dopamine D2 receptor expression cells in which adenosine 3′,5′-cyclic monophosphate (cyclic AMP) production was induced by forskolin stimulation.
Human recombinant dopamine D2 receptor expressing Chinese hamster ovary/DHFR(−) cells were cultured in a culture medium (Iscove's Modified Dulbecco's Medium (IMDM culture medium), 10% fetal bovine serum, 50 I.U./ml penicillin, 50 μg/ml streptomycin, 200 μg/ml geneticin, 0.1 mM sodium hypoxanthine, 16 μM thymidine) at 37° C. and 5% carbon dioxide condition. Cells were seeded at 10^4 cells/well on a 96-well microtiter plate coated with poly-L-lysine and grown under the same condition for 2 days. Each well was washed with 100 μl of a culture medium (IMDM culture medium, 0.1 mM sodium hypoxanthine, 16 μM thymidine).

Sequence of Human recombinant dopamine D2 receptor (P14416 whole entry): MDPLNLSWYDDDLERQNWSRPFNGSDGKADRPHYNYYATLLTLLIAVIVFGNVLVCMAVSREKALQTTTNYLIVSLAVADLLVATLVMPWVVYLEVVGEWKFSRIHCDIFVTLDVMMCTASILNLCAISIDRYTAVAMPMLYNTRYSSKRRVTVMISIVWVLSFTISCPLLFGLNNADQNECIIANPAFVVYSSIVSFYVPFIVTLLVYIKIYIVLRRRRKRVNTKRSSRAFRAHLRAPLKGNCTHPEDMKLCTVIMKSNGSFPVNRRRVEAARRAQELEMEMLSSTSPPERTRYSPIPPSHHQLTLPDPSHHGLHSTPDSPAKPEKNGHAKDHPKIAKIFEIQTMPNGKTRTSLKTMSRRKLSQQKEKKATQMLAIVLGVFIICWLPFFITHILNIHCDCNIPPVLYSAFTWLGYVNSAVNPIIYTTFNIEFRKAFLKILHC

Row | quantity of cyclic AMP as the maximum activity [2] | SMILES | Serotonin uptake inhibitory ratio (%)(300 nM) [1]
1 |  | O=c1ccc2ccc(OCCCCN3CCN(c4cccc5sccc45)CC3)cc2[nH]1 [Example 1, 7-[4-(4-benzo[b]thiophen-4-yl-piperazin-1-yl)butoxy]-1H-quinolin-2-one] | 92.4%
2 |  | O=c1[nH]c2ccccc2cc1OCCN1CCN(c2cccc3sccc23)CC1 [Example 2, 3-[2-(4-benzo[b]thiophen-4-yl-piperazin-1-yl)ethoxy]-1H-quinolin-2-one] | 78.8%
3 |  | Cc1cc(=O)[nH]c2cc(OCCCN3CCN(c4cccc5sccc45)CC3)ccc12 [Example 3, 7-[3-(4-benzo[b]thiophen-4-yl-piperazin-1-yl)propoxy]-4-methyl-1H-quinolin-2-one] | 84.8%
4 |  | Cc1cc(=O)[nH]c2cc(OCCCCN3CCN(c4cccc5sccc45)CC3)ccc12 [Example 4, 7-[4-(4-benzo[b]thiophen-4-yl-piperazin-1-yl)butoxy]-4-methyl-1H-quinolin-2-one] | 91.0%
5 |  | Cc1cc2ccc(OCCCN3CCN(c4cccc5sccc45)CC3)cc2[nH]c1=O [Example 5, 7-[3-(4-benzo[b]thiophen-4-yl-piperazin-1-yl)propoxy]-3-methyl-1H-quinolin-2-one] | 89.1%
6 |  | Cc1cc2ccc(OCCCCN3CCN(c4cccc5sccc45)CC3)cc2[nH]c1=O [Example 6, 7-[4-(4-benzo[b]thiophen-4-yl-piperazin-1-yl)butoxy]-3-methyl-1H-quinolin-2-one] | 91.3%
7 |  | O=c1ccc2ccc(OCCCN3CCN(c4cccc5sccc45)CC3)cc2[nH]1 [Example 7, 7-[3-(4-benzo[b]thiophen-4-yl-piperazin-1-yl)propoxy]-1H-quinolin-2-one] | 91.0%
8 |  | O=C1CCc2ccc(OCCCN3CCN(c4cccc5sccc45)CC3)cc2N1 [Example 10, 7-[3-(4-benzo[b]thiophen-4-yl-piperazin-1-yl)propoxy]-3,4-dihydro-1H-quinolin-2-one] | 92.6%
9 |  | O=C1CCc2ccc(OC/C=C\CN3CCN(c4cccc5sccc45)CC3)cc2N1 [Example 13, 7-[4-(4-benzo[b]thiophen-4-yl-piperazin-1-yl)-(Z)-2-butenyloxy]-3,4-dihydro-1H-quinolin-2-one] | 77.0%
10 |  | O=C1CCc2ccc(OC/C=C/CN3CCN(c4cccc5sccc45)CC3)cc2N1 [Example 15, 7-[4-(4-benzo[b]thiophen-4-yl-piperazin-1-yl)-(E)-2-butenyloxy]-3,4-dihydro-1H-quinolin-2-one] | 87.2%
11 |  | CC1CC(=O)Nc2cc(OCCCCN3CCN(c4cccc5sccc45)CC3)ccc21 (stereo not shown) [Example 16, 7-[4-(4-benzo[b]thiophen-4-yl-piperazin-1-yl)butoxy]-4-methyl-3,4-dihydro-1H-quinolin-2-one] | 86.7%
12 |  | O=C1CCc2cc(OCCCCN3CCN(c4cccc5sccc45)CC3)ccc2N1 [Example 20, 6-[4-(4-benzo[b]thiophen-4-yl-piperazin-1-yl)butoxy]-3,4-dihydro-1H-quinolin-2-one] | 92.8%
13 |  | O=C1c2ccccc2CCN1CCCCCN1CCN(c2cccc3sccc23)CC1 [Example 24, 2-[5-(4-benzo[b]thiophen-4-yl-piperazin-1-yl)pentyl]-3,4-dihydro-2H-isoquinolin-1-one] | 97.5%
14 |  | O=C1NCCc2cc(OCCCN3CCN(c4cccc5sccc45)CC3)ccc21 [Example 25, 6-[3-(4-benzo[b]thiophen-4-yl-piperazin-1-yl)propoxy]-3,4-dihydro-2H-isoquinolin-1-one] | 91.9%
15 |  | CN1CCc2cc(OCCCN3CCN(c4cccc5sccc45)CC3)ccc2C1=O [Example 26, 6-[3-(4-benzo[b]thiophen-4-yl-piperazin-1-yl)propoxy]-2-methyl-3,4-dihydro-2H-isoquinolin-1-one] | 92.0%
16 |  | CCN1CCc2cc(OCCCN3CCN(c4cccc5sccc45)CC3)ccc2C1=O [Example 27, 6-[3-(4-benzo[b]thiophen-4-yl-piperazin-1-yl)propoxy]-2-ethyl-3,4-dihydro-2H-isoquinolin-1-one] | 94.0%
17 |  | O=c1c2ccccc2ccn1CCCCN1CCN(c2cccc3sccc23)CC1 [Example 34, 2-[4-(4-benzo[b]thiophen-4-yl-piperazin-1-yl)butyl]-2H-isoquinolin-1-one] | 94.2%
18 |  | O=c1[nH]ccc2cc(OCCCN3CCN(c4cccc5sccc45)CC3)ccc12 [Example 40, 6-[3-(4-benzo[b]thiophen-4-yl-piperazin-1-yl)propoxy]-2H-isoquinolin-1-one] | 91.6%
19 | about 10% | NCCc1ccc(O)c(O)c1 [dopamine] | 
